According to patent US20220324835A1 (Nurix Therapeutics, Inc., priority 2018, published 2022):

Tested on: T-cells
Assay: In vivo activity: CD25 expression on CD4+ or CD8+ T-cells of mice stimulated with anti-CD3 antibody
Conditions: 2 μg anti-CD3 antibody, 24 hours
Procedure, shortened: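 C57BL/6 or BALB/c mice dosed with inhibitor (IV, IP, SC or PO, e.g. BID or TID), then stimulated with 2 μg anti-CD3 antibody. Plasma IL-2, IFNγ, TNFα at 8 h and CD25 on CD4+/CD8+ T-cells by flow cytometry at 24 h; fold change over vehicle plus anti-CD3, binned A–E.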

| SMILES | CD4+ T-cell % CD25+ (90 mpk IP BID) | CD8+ T-cell % CD25+ (90 mpk IP BID) | CD4+ T-cell % CD25+ (90 mpk PO BID) | CD8+ T-cell % CD25+ (90 mpk PO BID) | CD4+ T-cell % CD25+ (135 mpk PO BID) | CD8+ T-cell % CD25+ (135 mpk PO BID) | CD4+ T-cell % CD25+ (180 mpk PO BID) | CD8+ T-cell % CD25+ (180 mpk PO BID) |
| --- | --- | --- | --- | --- | --- | --- | --- | --- |
| C[C@H](Cc1nncn1C)c1cccc(NC(=O)c2ccnc(C(F)(F)F)n2)c1 [Compound 187, (R)-N-(3-(1-(4-methyl-4H-1,2,4-triazol-3-yl)propan-2-yl)phenyl)-2-(trifluoromethyl)pyrimidine-4-carboxamide] | C (C indicates 1.51-2.00) | D (D indicates 1.00-1.50) | – | – | – | – | – | – |
| Cn1cnnc1[C@@H]1C[C@@H]1c1cccc(N2Cc3c(cccc3C(F)(F)F)C2=O)c1 [Compound 282, 2-(3-((1S,2R)-2-(4-methyl-4H-1,2,4-triazol-3-yl)cyclopropyl)phenyl)-4-(trifluoromethyl)isoindolin-1-one] | – | – | D (D indicates 1.00-1.50) | D (D indicates 1.00-1.50) | C (C indicates 1.51-2.00) | D (D indicates 1.00-1.50) | B (B indicates 2.01-2.50) | D (D indicates 1.00-1.50) |
